Experimental data reported in ChEMBL document CHEMBL1201862, “PubChem BioAssay data set” (2004).
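1) Cells in 96-well plates. 2) Compound, 48 h, 5 concentrations. 3) Linear interpolation between surrounding doses. 4) Unreached endpoint = highest concentration. Here, GI50 denotes the concentration required for 50% inhibition of growth.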 Activity calls are given as the source filed them. No stated cut-off is given here; in the data, active = GI50 up to about 1.1 µM and inactive = higher.

Key:
Assay in all cases: NCI-60 cell line screen, 48 h
MOLT-4 = test system: MOLT-4
786-0 = test system: 786-0
OVCAR-4 = test system: OVCAR-4
SF-295 = test system: SF-295
DLD-1 = test system: DLD-1
A498 = test system: A498
COLO 205 = test system: COLO 205
HCT-116 = test system: HCT-116
UACC-257 = test system: UACC-257
SNB-19 = test system: SNB-19
U-251 = test system: U-251
NCI-H226 = test system: NCI-H226
RXF 393 = test system: RXF 393
HT-29 = test system: HT-29
SW-620 = test system: SW-620
IGROV-1 = test system: IGROV-1
A549 = test system: A549
MDA-MB-435 = test system: MDA-MB-435
NCI/ADR-RES = test system: NCI/ADR-RES
MCF7 = test system: MCF7

SMILES	GI50 (MOLT-4)	GI50 (786-0)	GI50 (OVCAR-4)	GI50 (SF-295)	GI50 (DLD-1)	GI50 (A498)	GI50 (COLO 205)	GI50 (HCT-116)	GI50 (UACC-257)	GI50 (SNB-19)	GI50 (U-251)	GI50 (NCI-H226)	GI50 (RXF 393)	GI50 (HT-29)	GI50 (SW-620)	GI50 (IGROV-1)	GI50 (A549)	GI50 (MDA-MB-435)	GI50 (NCI/ADR-RES)	GI50 (MCF7)
Cc1ccccc1C(=O)c1ccccc1O	> 100 µM (inactive)	> 100 µM (inactive)	> 100 µM (inactive)	> 100 µM (inactive)	> 100 µM (inactive)	> 100 µM (inactive)	> 100 µM (inactive)	> 100 µM (inactive)	> 100 µM (inactive)	> 100 µM (inactive)	> 100 µM (inactive)	> 100 µM (inactive)	> 100 µM (inactive)	> 100 µM (inactive)	> 100 µM (inactive)	> 100 µM (inactive)	> 100 µM (inactive)			
O=C(/C=N/O)Nc1cccc(Cl)c1I	42.3 µM (inactive)	> 100 µM (inactive)	28.9 µM (inactive)	50.7 µM (inactive)	63.4 µM (inactive)	27.7 µM (inactive)	89.9 µM (inactive)	53.6 µM (inactive)	56.9 µM (inactive)	55.7 µM (inactive)	39.2 µM (inactive)	> 100 µM (inactive)	23.7 µM (inactive)	> 100 µM (inactive)	> 100 µM (inactive)	26.5 µM (inactive)	46 µM (inactive)			
Nc1nc(O)c([N+](=O)[O-])c(NCCOCP(=O)(O)O)n1	> 100 µM (inactive)	> 100 µM (inactive)		> 100 µM (inactive)	> 100 µM (inactive)		> 100 µM (inactive)	> 100 µM (inactive)	> 100 µM (inactive)	> 100 µM (inactive)	> 100 µM (inactive)	> 100 µM (inactive)	> 100 µM (inactive)	> 100 µM (inactive)	> 100 µM (inactive)	> 100 µM (inactive)	> 100 µM (inactive)			
COc1ccc(Cc2cc(OC)c(OC)c(OC)c2)cc1	0.221 µM (active)	0.429 µM (active)	10.6 µM (inactive)	0.188 µM (active)	0.33 µM (active)	0.27 µM (active)	0.143 µM (active)	0.207 µM (active)	0.509 µM (active)	0.324 µM (active)	0.261 µM (active)	0.923 µM (active)	0.168 µM (active)	0.124 µM (active)	0.109 µM (active)	0.863 µM (active)	0.417 µM (active)	0.0236 µM (active)	0.146 µM (active)	0.203 µM (active)
NC1=NN(c2ccccc2)C(=O)C1C(=O)CCC(=O)Nc1cccc(C(F)(F)F)c1 (stereo unspecified)	> 100 µM (inactive)	> 100 µM (inactive)	> 100 µM (inactive)	> 100 µM (inactive)	48.8 µM (inactive)		> 100 µM (inactive)	> 100 µM (inactive)	> 100 µM (inactive)	> 100 µM (inactive)	> 100 µM (inactive)	> 100 µM (inactive)	> 100 µM (inactive)	> 100 µM (inactive)	42.6 µM (inactive)	> 100 µM (inactive)	> 100 µM (inactive)			
O=C1C[C@H]2CC3(CC[C@H]2CN1)OCCO3	> 100 µM (inactive)	> 100 µM (inactive)	> 100 µM (inactive)	> 100 µM (inactive)	> 100 µM (inactive)	> 100 µM (inactive)	> 100 µM (inactive)	> 100 µM (inactive)	> 100 µM (inactive)	> 100 µM (inactive)	> 100 µM (inactive)		> 100 µM (inactive)	> 100 µM (inactive)	> 100 µM (inactive)	> 100 µM (inactive)	> 100 µM (inactive)			
O=C(c1ccc([N+](=O)[O-])cc1[N+](=O)[O-])N(/N=C/C=C/c1ccccc1)c1nnc(-c2ccccc2)c(-c2ccccc2)n1	23.6 µM (inactive)	21 µM (inactive)	20.8 µM (inactive)	30.5 µM (inactive)	34.8 µM (inactive)	30.5 µM (inactive)	41.6 µM (inactive)		31.5 µM (inactive)	94.4 µM (inactive)	40.3 µM (inactive)	32.7 µM (inactive)	22.8 µM (inactive)	46 µM (inactive)	44.4 µM (inactive)	42.1 µM (inactive)	29.4 µM (inactive)			
C/C(=N\N=C(/S)N(C)C)c1cccc[n+]1[O-]	0.914 µM (active)	28.6 µM (inactive)	46.8 µM (inactive)	39.6 µM (inactive)	2.18 µM (inactive)	> 100 µM (inactive)	0.82 µM (active)	0.489 µM (active)	4.38 µM (inactive)	91 µM (inactive)	44.3 µM (inactive)	54.6 µM (inactive)	65.3 µM (inactive)	3.05 µM (inactive)	22.3 µM (inactive)	45.3 µM (inactive)	59.7 µM (inactive)	65.8 µM (inactive)	2.05 µM (inactive)	8.05 µM (inactive)
O=C(CC(=O)n1nc(-c2ccccc2)c(/N=N/c2ccccc2Cl)c1-c1ccccc1)Nc1ccc(Cl)cc1	> 100 µM (inactive)	> 52.7 µM (inactive)	> 100 µM (inactive)	> 100 µM (inactive)	> 43.6 µM (inactive)	> 100 µM (inactive)	> 44.5 µM (inactive)	> 41.3 µM (inactive)	> 83.2 µM (inactive)	> 100 µM (inactive)	> 38.6 µM (inactive)	> 100 µM (inactive)	> 100 µM (inactive)	> 54.6 µM (inactive)	> 48.6 µM (inactive)	> 100 µM (inactive)	> 54.1 µM (inactive)			
CCP(C)(=O)CC	> 100 µM (inactive)	> 100 µM (inactive)	> 100 µM (inactive)	> 100 µM (inactive)	> 100 µM (inactive)		> 100 µM (inactive)	> 100 µM (inactive)	> 100 µM (inactive)	> 100 µM (inactive)	> 100 µM (inactive)	> 100 µM (inactive)	> 100 µM (inactive)	> 100 µM (inactive)	> 100 µM (inactive)	> 100 µM (inactive)	> 100 µM (inactive)			
COC(=O)C1=CC(=O)[C@@H]2CCCC[C@H]12	> 100 µM (inactive)	> 100 µM (inactive)	> 100 µM (inactive)		> 100 µM (inactive)		> 100 µM (inactive)	> 100 µM (inactive)	> 100 µM (inactive)	> 100 µM (inactive)	> 100 µM (inactive)	> 100 µM (inactive)	> 100 µM (inactive)		> 100 µM (inactive)		> 100 µM (inactive)			
C/C(CN1C(=O)c2ccccc2C1=O)=N\NS(=O)(=O)c1ccc(Br)cc1	> 100 µM (inactive)	> 100 µM (inactive)	> 100 µM (inactive)	> 100 µM (inactive)	> 100 µM (inactive)	> 100 µM (inactive)	> 100 µM (inactive)	> 100 µM (inactive)	> 100 µM (inactive)	> 100 µM (inactive)	> 100 µM (inactive)	> 100 µM (inactive)	> 100 µM (inactive)	> 100 µM (inactive)	> 100 µM (inactive)	> 100 µM (inactive)	> 100 µM (inactive)			
CC(C)(C)/N=C1/CC(C)(C)c2ccccc2/C(=N\c2ccccc2)S1	14.8 µM (inactive)	39.4 µM (inactive)		32.4 µM (inactive)	26.3 µM (inactive)	43 µM (inactive)	23.3 µM (inactive)	33.4 µM (inactive)	30 µM (inactive)	36.2 µM (inactive)	30.6 µM (inactive)	47.3 µM (inactive)	21.4 µM (inactive)	35 µM (inactive)	44 µM (inactive)	48.3 µM (inactive)	36.4 µM (inactive)			
O=C1C=C(Br)C(=O)C12CCc1ccccc12 (stereo unspecified)	2.43 µM (inactive)	11.9 µM (inactive)	24.7 µM (inactive)	18.6 µM (inactive)	9.48 µM (inactive)	4.61 µM (inactive)	4.05 µM (inactive)	10.5 µM (inactive)	19.4 µM (inactive)	32.9 µM (inactive)	21.7 µM (inactive)	18.3 µM (inactive)	9.14 µM (inactive)	14.8 µM (inactive)	4.4 µM (inactive)	20.5 µM (inactive)	23.5 µM (inactive)	14.7 µM (inactive)	27.7 µM (inactive)	16.5 µM (inactive)
